{"source": "BindingDB's records for doi:10.1021/acs.jmedchem.6b01442", "about": "(Tsinghua University, 2017)", "assay": "Inhibition of HBV capsid assembly infected in human HepG2(2.2.15) cells assessed as inhibition of intracellular viral DNA level after 8 days by agarose gel electrophoresis method", "data": [{"smiles": "CC(=O)Nc1ccc(-c2cc(C)c(=O)n(Cc3ccc(Cl)cc3)n2)cc1", "values": [{"measurement": "IC50", "result": 1900, "unit": "nM"}]}]}
